Several values for one entry are separate records, joined by “and”; a condition that tells them apart may be missing. Identical values can stand only once. Toxic doses and inconclusive results are not listed.

These results are taken from PubChem BioAssay AID330 (DTP/NCI, 2004).

For this assay, the system named is P388 leukemia ip, CD2F1 mice, survival T/C. Put plainly: NCI In Vivo Anticancer Drug Screen. Data for tumor model P388 Leukemia (intraperitoneal) in CD2F1 (CDF1) mice. The settings on record: endpoint: median survival time, higher = longer survival. The essentials: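 Mice carrying the transplanted tumor received test compound or vehicle. Survival was recorded in each group, and the value is the treated-group measurement divided by that of the vehicle-treated control group.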

Where [1] appears, read: dose: 100.0 mg/kg/injection, schedule: Q04DX002 (ip), vehicle: Klucel (hydroxypropylcellulose) (HPC).
Where [2] appears, read: dose: 200.0 mg/kg/injection, schedule: Q04DX002 (ip), vehicle: Klucel (hydroxypropylcellulose) (HPC).
Where [3] appears, read: dose: 60.0 mg/kg/injection, schedule: Q01DX005 (ip), vehicle: saline with Tween-80.
Setting [4] is: dose: 120.0 mg/kg/injection, schedule: Q01DX005 (ip), vehicle: saline with Tween-80.
[5] abbreviates: dose: 240.0 mg/kg/injection, schedule: Q01DX005 (ip), vehicle: saline with Tween-80.
The mark [6] stands for this setting: dose: 100.0 mg/kg/injection, schedule: Q01DX009 (ip), vehicle: saline with Tween-80.
The mark [7] stands for this setting: dose: 200.0 mg/kg/injection, schedule: Q01DX009 (ip), vehicle: saline with Tween-80.
Setting [8] is: dose: 25.0 mg/kg/injection, schedule: Q01DX009 (ip), vehicle: saline with Tween-80.
The mark [9] stands for this setting: dose: 50.0 mg/kg/injection, schedule: Q01DX009 (ip), vehicle: saline with Tween-80.
Where [10] appears, read: dose: 100.0 mg/kg/injection, schedule: Q01DX009 (ip), vehicle: saline.
Setting [11] is: dose: 200.0 mg/kg/injection, schedule: Q01DX009 (ip), vehicle: saline.

In the case of `C=C(C)C1CC(=O)C2(C)C(C1)OC(=O)C2C(=O)OCC` (stereo not drawn), the T/C under setting [1] was 101 % of control; the T/C under setting [2] is 103 % of control and 106 % of control; the T/C (dose: 400.0 mg/kg/injection, schedule: Q04DX002 (ip), vehicle: Klucel (hydroxypropylcellulose) (HPC)) was 103 % of control and 104 % of control.

Take `Cc1ccc(S(=O)(=O)N(CCCc2c(Cl)nc(N)nc2-c2ccccc2)c2ccccc2)cc1`: the T/C by setting is: under setting [3], 87 % of control; under setting [4], 87 % of control; under setting [5], 89 % of control.

As to `COc1cccc2c1C(=O)c1c(O)c3c(c(O)c1C2=O)CC(O)(c1csc(N2CCN(C)CC2)n1)CC3O` (stereo not drawn), the T/C is 87 % of control (dose: 1.56 mg/kg/injection, schedule: Q01DX009 (ip), vehicle: water); 93 % of control (dose: 3.13 mg/kg/injection, schedule: Q01DX009 (ip), vehicle: water); 110 % of control (dose: 6.25 mg/kg/injection, schedule: Q01DX009 (ip), vehicle: water); 110 % of control (dose: 12.5 mg/kg/injection, schedule: Q01DX009 (ip), vehicle: water); 105 % of control and 116 % of control (dose: 25.0 mg/kg/injection, schedule: Q01DX009 (ip), vehicle: water); 102 % of control (dose: 50.0 mg/kg/injection, schedule: Q01DX009 (ip), vehicle: water). For the same compound, the T/C (dose: 100.0 mg/kg/injection, schedule: Q01DX009 (ip), vehicle: water) is 107 % of control.

As for `C(=C\c1ccc2ccccc2n1)/c1ccc2c(c1)OCO2`, the T/C is, setting by setting: under setting [6], 105 % of control; under setting [7], 95 % of control; (dose: 400.0 mg/kg/injection, schedule: Q01DX009 (ip), vehicle: saline with Tween-80) 110 % of control.

As to `O=S1(=O)Cc2c3c(c4c(c2C1)CS(=O)(=O)C4)CS(=O)(=O)C3`, the T/C is 94 % of control (dose: 50.0 mg/kg/injection, schedule: Q04DX002 (ip), vehicle: Klucel (hydroxypropylcellulose) (HPC)); 96 % of control under setting [1]; 98 % of control under setting [2].

In the case of `CCCCCCCCCCCCOC(=O)c1ccc(O)cc1`, the T/C runs as follows: (dose: 50.0 mg/kg/injection, schedule: Q01DX009 (ip), vehicle: Klucel (hydroxypropylcellulose) (HPC)) 98 % of control; (dose: 100.0 mg/kg/injection, schedule: Q01DX009 (ip), vehicle: Klucel (hydroxypropylcellulose) (HPC)) 94 % of control.

As for `CC(CN=C(CC(=O)C(F)(F)F)C(F)(F)F)N=C(CC(=O)C(F)(F)F)C(F)(F)F.[Ni]` (stereo not drawn), the T/C was 98 % of control (dose: 100.0 mg/kg/injection, schedule: Q04DX002 (ip), vehicle: saline with Tween-80); 98 % of control (dose: 200.0 mg/kg/injection, schedule: Q04DX002 (ip), vehicle: saline with Tween-80); 93 % of control (dose: 400.0 mg/kg/injection, schedule: Q04DX002 (ip), vehicle: saline with Tween-80).

Take `O=C1OCC2OC(=O)c3cc(O)c(O)c(O)c3-c3c(O)c(O)c(O)c4c3C(=O)OC(C2OC(=O)c2cc(O)c(O)c(O)c2-c2c1cc(O)c(O)c2O)C1OC(=O)c2c-4c(O)c(O)c(O)c2C1O` (stereo not drawn): the T/C by setting is: (dose: 1.56 mg/kg/injection, schedule: Q01DX009 (ip), vehicle: saline) 101 % of control; (dose: 3.12 mg/kg/injection, schedule: Q01DX009 (ip), vehicle: saline) 100 % of control; (dose: 6.25 mg/kg/injection, schedule: Q01DX009 (ip), vehicle: saline) 99 % of control and 88 % of control and 100 % of control; (dose: 12.5 mg/kg/injection, schedule: Q01DX009 (ip), vehicle: saline) 100 % of control.

For `O=[N+]([O-])C(CO)CCC(CO)[N+](=O)[O-]` (stereo not drawn), the T/C by setting is: (dose: 100.0 mg/kg/injection, schedule: Q04DX003 (ip), vehicle: Klucel (hydroxypropylcellulose) (HPC)) 96 % of control; (dose: 200.0 mg/kg/injection, schedule: Q04DX003 (ip), vehicle: Klucel (hydroxypropylcellulose) (HPC)) 98 % of control; (dose: 400.0 mg/kg/injection, schedule: Q04DX003 (ip), vehicle: Klucel (hydroxypropylcellulose) (HPC)) 88 % of control.

With `Oc1ccccc1C=NCc1ccccc1`, the T/C under setting [8] was 107 % of control, the T/C under setting [9] was 119 % of control, the T/C under setting [6] is 114 % of control and the T/C under setting [7] was 114 % of control.

Consider `C1=CN2CC(c3ccccc3)N=C2S1` (stereo not drawn), for which the T/C was 99 % of control (dose: 12.5 mg/kg/injection, schedule: Q01DX009 (ip), vehicle: other) and 102 % of control (dose: 25.0 mg/kg/injection, schedule: Q01DX009 (ip), vehicle: other).

For `COc1cc2c(cc1OC)[Se](Br)(Br)c1cc(OC)c(OC)cc1[Se]2`, the T/C was 107 % of control under setting [3], 98 % of control under setting [4] and 100 % of control under setting [5].

Take `O=C(NC1CC(c2ccccc2)(c2ccccc2)OC1=O)OCc1ccccc1` (stereo not drawn): the T/C runs as follows: (dose: 12.5 mg/kg/injection, schedule: Q01DX009 (ip), vehicle: saline with Tween-80) 90 % of control; under setting [8], 93 % of control; under setting [9], 90 % of control and 93 % of control; under setting [7], 93 % of control.

Regarding `COc1cc2c(c(OC)c1OC)-c1ccc(OC)c(=O)cc1CC=C2`, the T/C was 124 % of control (dose: 1.25 mg/kg/injection, schedule: Q01DX009 (ip), vehicle: Klucel (hydroxypropylcellulose) (HPC)); 119 % of control and 120 % of control (dose: 2.5 mg/kg/injection, schedule: Q01DX009 (ip), vehicle: Klucel (hydroxypropylcellulose) (HPC)); 100 % of control (dose: 5.0 mg/kg/injection, schedule: Q01DX009 (ip), vehicle: Klucel (hydroxypropylcellulose) (HPC)); 170 % of control (dose: 10.0 mg/kg/injection, schedule: Q01DX009 (ip), vehicle: Klucel (hydroxypropylcellulose) (HPC)).

For the compound `O=C1C=CC(O)C2OC12` (stereo not drawn), the T/C reads like this: (dose: 5.0 mg/kg/injection, schedule: Q04DX002 (ip), vehicle: saline) 111 % of control; (dose: 10.0 mg/kg/injection, schedule: Q04DX002 (ip), vehicle: saline) 113 % of control.

As to `COC(=O)c1cc(C)c(NC(C)=O)cc1C`, the T/C runs as follows: (dose: 12.5 mg/kg/injection, schedule: Q01DX009 (ip), vehicle: distilled water + Tween-80) 100 % of control; (dose: 25.0 mg/kg/injection, schedule: Q01DX009 (ip), vehicle: distilled water + Tween-80) 98 % of control; (dose: 50.0 mg/kg/injection, schedule: Q01DX009 (ip), vehicle: distilled water + Tween-80) 90 % of control; (dose: 100.0 mg/kg/injection, schedule: Q01DX009 (ip), vehicle: distilled water + Tween-80) 98 % of control; (dose: 200.0 mg/kg/injection, schedule: Q01DX009 (ip), vehicle: distilled water + Tween-80) 89 % of control.

Consider `C=C(C)c1nc(N)nc(-c2cccc(-c3nc(N)nc(C(=C)C)n3)c2)n1`, for which the T/C runs as follows: (dose: 50.0 mg/kg/injection, schedule: Q01DX005 (ip), vehicle: Klucel (hydroxypropylcellulose) (HPC)) 95 % of control; (dose: 100.0 mg/kg/injection, schedule: Q01DX005 (ip), vehicle: Klucel (hydroxypropylcellulose) (HPC)) 99 % of control; (dose: 200.0 mg/kg/injection, schedule: Q01DX005 (ip), vehicle: Klucel (hydroxypropylcellulose) (HPC)) 100 % of control.

As to `CSc1nc2c3ccccc3ccn2c(=N)c1C#N`, the T/C was 104 % of control (dose: 25.0 mg/kg/injection, schedule: Q04DX002 (ip), vehicle: saline) and 109 % of control (dose: 50.0 mg/kg/injection, schedule: Q04DX002 (ip), vehicle: saline).

On to `CC1=C(C)OP(=O)(O)O1`, for which the T/C runs as follows: under setting [9], 100 % of control; (dose: 50.0 mg/kg/injection, schedule: Q01DX009 (ip), vehicle: saline) 100 % of control; under setting [6], 100 % of control; under setting [10], 96 % of control; under setting [7], 95 % of control; under setting [11], 100 % of control.

`CCCCCCCCCCNC1CC(OC2CC(O)(C(C)=O)Cc3c(O)c4c(c(O)c32)C(=O)c2c(OC)cccc2C4=O)OC(C)C1O` (stereo not drawn): the T/C was 101 % of control (dose: 4.7 mg/kg/injection, schedule: Q04DX003 (ip), vehicle: water); 97 % of control (dose: 9.4 mg/kg/injection, schedule: Q04DX003 (ip), vehicle: water); 106 % of control (dose: 18.8 mg/kg/injection, schedule: Q04DX003 (ip), vehicle: water); 92 % of control (dose: 37.5 mg/kg/injection, schedule: Q04DX003 (ip), vehicle: water).

In the case of `CN(C)P(N)(N)=O`, the T/C is 105 % of control under setting [10]; 95 % of control under setting [11]; 100 % of control (dose: 400.0 mg/kg/injection, schedule: Q01DX009 (ip), vehicle: saline).
